Source: patent publication US20150289513A1, “USE OF A COMPOUND COMPRISING A POLYFLUOROBENZYL MOIETY AGAINST INSECTICIDE-RESISTANT PESTS” (priority 2012, published 2015)

Legend:
[1] = test system: Anopheles funestus (metabolic-resistant strain FUMOZ-R); test: Glazed tile contact test, knock-down; format: in vivo
Description: (§1) To produce a suitable preparation Transfluthrin was dissolved in acetone. The active compound solution was pipetted onto a glazed tile and, after drying, adult mosquitoes of the species: • Anopheles gambiae (target-site-resistant and metabolic-resistant strain: RSPH), • Anopheles gambiae (target-site-resitant and metabolic-resistant strain: Tiassalé), • Anopheles gambiae (tar et-site-resitant and metabolic-resistant strain: Akron), • Anopheles gambiae (target-site-resistant strain: VK7), and • Anopheles funestus (metabolic-resistant strain FUMOZ-R) were placed onto the treated tile (each strain was tested on separate tiles). The exposition time was 30 minutes.
(§2) 0.25 hours, 0.5 hours, 1 hour, 2 hour, 3 hour, 4 hour and 24 hours after contact to the treated surface, the knock-down proportion of the test animals in % was determined. Here, 100% (effect) means that all mosquitoes have been killed; 0% (effect) means that none of the mosquitoes have been killed.
(§3) Similarly as outlined in example 2 for Transfluthrin, Metofluthrin efficacy was assessed against • Anopheles gambiae (target-site-resistant and metabolic-resistant strain: RSPH), • Anopheles funestus (metabolic-resistant strain FUMOZ-R), and • Culex quinquefasciatus (metabolic-resistant to DDT; strain P00), with the results shown in Tables 10 to 12. 0.25 hours, 0.5 hours, 1 hour, 2 hour, 3 hour, 4 hour and 24 hours after contact to the treated surface, the knock-down proportion of the test animals in % is depicted in Tables 10 to 12. 100% (effect) means that all mosquitoes have been killed; 0% (effect) means that none of the mosquitoes have been killed.
(§4) Similarly as outlined in example 2 for Transfluthrin, Metofluthrin efficacy was assessed against • Anopheles gambiae (target-site-resistant and metabolic-resistant strain: RSPH), • Anopheles funestus (metabolic-resistant strain FUMOZ-R), and with the results shown in Tables […]. 0.25 hours, 0.5 hours, 1 hour, 2 hour and 3 hours after contact to the treated surface, the knock-down proportion of the test animals in % is depicted in Tables 13 to 14. 100% (effect) means that all mosquitoes have been killed; 0% (effect) means that none of the mosquitoes have been killed.

[2] = test system: Anopheles gambiae (target-site-resistant and metabolic-resistant strain: RSPH); test: Glazed tile contact test, knock-down; format: in vivo
Description: as §1, §2, §3, §4

COCc1c(F)c(F)c(COC(=O)C2C(C=C(C)C#N)C2(C)C)c(F)c1F (centres unmarked) [Momfluorothrin, 2,3,5,6-Tetrafluoro-4-(methoxymethyl)benzyl 3-(2-cyano-1-propen-1-yl)-2,2-dimethylcyclopropanecarboxylate]
Effect % ([1]; 1.6 g/ha, 0.25 h after contact): 0%
Effect % ([1]; 1.6 g/ha, 0.5 h after contact): 0%
Effect % ([1]; 1.6 g/ha, 1 h after contact): 0%
Effect % ([1]; 1.6 g/ha, 2 h after contact): 10%
Effect % ([1]; 1.6 g/ha, 3 h after contact): 20%
Effect % ([1]; 40 g/ha, 0.25 h after contact): 100%
Effect % ([1]; 40 g/ha, 0.5 h after contact): 100%
Effect % ([1]; 40 g/ha, 1 h after contact): 100%
Effect % ([1]; 40 g/ha, 2 h after contact): 90%
Effect % ([1]; 40 g/ha, 3 h after contact): 100%
Effect % ([2]; 1.6 g/ha, 0.25 h after contact): 10%
Effect % ([2]; 1.6 g/ha, 0.5 h after contact): 7%
Effect % ([2]; 1.6 g/ha, 1 h after contact): 35%
Effect % ([2]; 1.6 g/ha, 2 h after contact): 14%
Effect % ([2]; 1.6 g/ha, 3 h after contact): 14%
Effect % ([2]; 40 g/ha, 0.25 h after contact): 100%
Effect % ([2]; 40 g/ha, 0.5 h after contact): 100%
Effect % ([2]; 40 g/ha, 1 h after contact): 100%
Effect % ([2]; 40 g/ha, 2 h after contact): 100%
Effect % ([2]; 40 g/ha, 3 h after contact): 100%
